Reference: PubChem BioAssay (NCI)
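Values below derive from 48-hour exposures of cells grown in 96-well plates, with endpoints linearly interpolated between the two concentrations bracketing the appropriate inhibition level. GI50: concentration for 50% inhibition of growth. At the TGI there is no net growth.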

Key:
Test in all cases: growth of human tumour cells (NCI), 48 h
[1] = test system: LXFL 529 NSCLC
[2] = test system: XF 498 CNS
[3] = test system: RXF 393 renal
[4] = test system: SF-295 CNS
[5] = test system: SK-MEL-2 melanoma
[6] = test system: CAKI-1 renal
[7] = test system: IGROV1 ovarian
[8] = test system: SF-268 CNS
[9] = test system: NCI/ADR-RES ovarian
[10] = test system: BT-549 breast

Row | SMILES | TGI [1] [µM] | TGI [2] [µM] | TGI [3] [µM] | TGI [4] [µM] | TGI [5] [µM] | TGI [6] [µM] | TGI [7] [µM] | TGI [8] [µM] | GI50 [1] [µM] | GI50 [2] [µM] | GI50 [3] [µM] | GI50 [4] [µM] | GI50 [5] [µM] | GI50 [8] [µM] | GI50 [6] [µM] | GI50 [7] [µM] | TGI [9] [µM] | TGI [10] [µM]
1 | CC(=O)OC1CCn2nnc(COC(=O)NC(C)C)c21 (configuration not stated) | > 100 | > 100 | > 100 | > 100 | > 100 | > 100 | > 100 |  |  |  |  |  |  |  |  |  |  | 
2 | COc1ccc(C(c2ccc(C(C)C)cc(=O)c2O)c2c(O)cc3oc(-c4ccccc4)cc(=O)c3c2O)cc1 (configuration not stated) | 71.6 | 37 | 34.2 | 16.7 |  | 36.3 | 24.4 |  |  |  |  |  |  |  |  |  |  | 
3 | CCCNCc1nc2ccc(Br)cc2c(=O)n1CCC | 25.1 | 30.9 | 29.1 | 30.6 | 25.2 |  | 29.7 | 26.9 |  |  |  |  |  |  |  |  |  | 
4 | O=c1ccccc2cccc(O)c12 | > 100 | > 100 | > 100 | > 100 |  | > 100 | > 100 |  |  |  |  |  |  |  |  |  |  | 
5 | CCC[CH2][Sn]([CH2]CCC)([O]C(=O)c1cccc(F)c1)[O]C(=O)c1cccc(F)c1 | 0.664 | 2.04 | 0.758 | 2.86 | 2.1 | 1.43 | 2.93 | 2.53 | 0.228 | 0.559 | 0.185 | 1.48 | 0.851 | 1.16 | 0.369 | 1.43 |  | 
6 | Cc1ccc(NC(=O)/C(CC(=O)c2c[n+](=O)c3ccccc3n2O)=N\NC(=O)C[n+]2ccccc2)cc1 | > 100 | > 100 | > 100 | > 100 | > 100 | > 100 | > 100 | > 100 |  |  |  |  |  |  |  |  |  | 
7 | O=C1CCCC/C1=C/C=C/c1ccccc1 | > 100 | > 100 | > 100 | > 100 | > 100 | > 100 | > 100 | > 100 |  |  |  |  |  |  |  |  |  | 
8 | O=C1C=C(Nc2ccccc2C(=O)CC(=O)C(=O)Nc2cccc(C(F)(F)F)c2)c2ccccc2C1=O | 71.5 | 48.7 | 93.3 | 53.7 | 44.5 | 99.8 | > 100 | 73.3 |  |  |  |  |  |  |  |  | 49.5 | 49.1
9 | C=C1CC(CCCl)(c2ccccc2)OC1=O (configuration not stated) | 45.4 | > 100 | 47.7 | > 100 | > 100 |  | > 100 | > 90.5 |  |  |  |  |  |  |  |  |  | 
10 | CN(C)CCn1c2ccccc2c2nc3cc4ccccc4cc3nc21 | 17.9 | 21.4 | 24.4 | 17 | 24.8 | 20 | 10.7 | 6.26 |  |  |  |  |  |  |  |  |  | 
11 | O=c1/c(=C/c2ccc(Cl)cc2Cl)sc2nc3ccccc3n12 | > 100 | > 100 | > 100 | > 100 | > 100 | > 100 | > 100 | > 100 |  |  |  |  |  |  |  |  |  | 
12 | CC(=O)N1CC2Nc3ccccc3C2CC1CO (configuration not stated) | > 100 | > 100 | > 100 | > 100 | > 100 | > 100 | > 100 | > 100 |  |  |  |  |  |  |  |  |  | 
13 | Cn1c(CCC#N)nc2ccc(Br)cc2c1=O | > 100 | > 100 | > 100 | > 100 | > 100 | > 100 | > 100 | > 100 |  |  |  |  |  |  |  |  |  | 
14 | Nc1ccc(Nc2nc(F)nc(-c3c4ccccc4c4n3CCS4)n2)cc1 | 31.1 | 20.3 | 43.3 | 33.7 | 29.3 | 23.6 | 29.9 | 37.1 |  |  |  |  |  |  |  |  |  | 
15 | CCOC(=O)/N=C(\N)SCc1ccccc1 | > 100 | > 100 | > 100 | > 100 | > 100 | > 100 | > 100 | > 100 |  |  |  |  |  |  |  |  |  | 
16 | COc1cc(-c2[nH]ccc2Cl)oc1C1=C2N=C3C=C2C(C(C)C)C1CCCCCCCC3 (configuration not stated) | 1.84 | 2.76 | 2.42 | 2.39 | 1.39 | 5.27 | 2.71 | 4.1 |  |  |  |  |  |  |  |  |  | 2.32
